The text below walks through data of article PMC7074965, “Discovery of Two Brominated Oxindole Alkaloids as Staphylococcal DNA Gyrase and Pyruvate Kinase Inhibitors via Inverse Virtual Screening” (Microorganisms, 2020).

≈ marks a conversion by molar mass, not a printed value. Like-named read-outs stand apart in the source and are kept apart here.

The test system of assay [1] is Bacillus subtilis ATCC5230. Briefly: MIC determination, twofold serial dilution. The class given is cell-based. The settings on record: read-out: MIC (B. subtilis). As for the experimental part: (§1) All the bacterial strains were maintained at −80 °C in 15% glycerol nutrient broth (Oxoid, Milan, Italy).
(§2) The twofold serial dilution approach was applied to determine the MICs of each compound. Each tested compound was dissolved in DMSO (Sigma, Milan, Italy) to prepare the test solutions. Many colonies of each tested bacterial strain were inoculated in 10 mL of sterilized Mueller–Hinton broth (MHB) (Oxoid) and incubated at 37 °C for 18–24 h. […] All data are reported as the mean of three independent experiments.

Assay [2] deals with Escherichia coli ATCC 259228. Kind of assay: MIC determination, twofold serial dilution. The class given is cell-based. The settings on record: read-out: MIC (E. coli). As for the experimental part:
as §1, §2

Assay [3] relates to Pseudomonas aeruginosa ATCC9027. Briefly: MIC determination, twofold serial dilution. The settings on record: read-out: MIC (P. aeruginosa). The format is cell-based. As for the experimental part: as §1, §2
The test system of the next assay is MRSA ATCC33591. Briefly: MIC determination, twofold serial dilution. The settings on record: Staphylococcus aureus, read-out: MIC (MRSA). The class given is cell-based. As for the experimental part:
as §1, §2

In the next assay the test system is Pim-1 kinase. The arrangement: method as in PMID 30061488, PMID 30525020, PMID 31395834. The settings on record: previously reported; cited from earlier work.
Where [4] appears, read: 24 h incubation, mean of three experiments.
The mark [5] stands for this setting: Bacillus subtilis, ATCC5230, 24 h incubation, mean of three experiments.
Where [6] appears, read: Escherichia coli, ATCC259228, 24 h incubation, mean of three experiments.
Where [7] appears, read: Pseudomonas aeruginosa, ATCC9027, 24 h incubation, mean of three experiments.
[8] abbreviates: Bacillus subtilis, ATCC5230, 24 h.
Where [9] appears, read: Escherichia coli, ATCC259228, 24 h.
The mark [10] stands for this setting: Pseudomonas aeruginosa, ATCC9027, 24 h.

Regarding `CC(C)CCC[C@@H](C)[C@H]1CC[C@H]2[C@@H]3CCC4=CC(=O)CC[C@]4(C)[C@H]3CC[C@]12C` [Compound 29, Cholestenone], the minimal inhibitory concentration (MIC) in assay [1] (setting [4]), in assay [2] (setting [4]) and in assay [3] (setting [4]) was over 256 µM each time.

For the compound `COc1ccc(/C=C/C(=O)/C=C2/C(=O)Nc3cc(Br)ccc32)cc1` [Compound 7, Saccharomon osp orine A], the minimum inhibitory concentration (MIC) (in assay [1] (setting [5]); in assay [2] (setting [6]); in assay [3] (setting [7]); with MRSA ATCC33591 (setting [4])) was over 256 µM in each case. The Pim-1 kinase inhibition result with Pim-1 kinase is reported as “potent cytotoxic Pim-1 kinase inhibitors”.

Turning to Callysterol [Compound 28], the minimum inhibitory concentration (MIC) in assay [1] (setting [4]), in assay [2] (setting [4]) and in assay [3] (setting [4]) was over 256 µM each time.

Take `O=C1Nc2ccccc2C1(c1c[nH]c2ccccc12)c1c[nH]c2ccccc12` [Compound 3, Trisindoline]: the minimal inhibitory concentration (MIC) (in general, the lowest concentration found to suppress growth) in assay [1] (setting [5]) is 16 µM (≈ 5.81 µg/mL); in assay [2] (setting [6]), over 256 µM; in assay [3] (setting [7]), over 256 µM; in the assay on MRSA ATCC33591 (setting [4]), 32 µM (≈ 11.6 µg/mL).

Turning to `COc1cc(/C=C/C(=O)O)cc(OC)c1O` [Compound 24, Sinapic acid], the minimal inhibitory concentration (MIC) in assay [1] (setting [4]), in assay [2] (setting [4]) and in assay [3] (setting [4]) was over 256 µM throughout.

Consider `CC1=CCC2C(CC[C@@]2(C)O)C(C)(C)C1CC[C@@H]1[C@@]2(C)CC[C@@H](O)C(C)(C)O[C@@H]2CC[C@]1(C)O` (stereo partly drawn) [Compound 35, Sipholenol A], for which the MIC (in assay [1] (setting [5]); in assay [2] (setting [6]); in assay [3] (setting [7]); in the assay on MRSA ATCC33591 (setting [4])) was over 256 µM each time.

Take `CC(C)[C@@H](C)/C=C/[C@@H](C)[C@H]1CC[C@@H]2[C@]1(C)CC[C@H]1[C@]23C=C[C@]2(C[C@@H](O)CC[C@]12C)OO3` [Compound 33, Ergosterol peroxide]: the MIC (in assay [1] (setting [5]); in assay [2] (setting [6]); in assay [3] (setting [7]); in the assay with MRSA ATCC33591 (setting [4])) was over 256 µM in each case.

For `COC(=O)c1ccc(OC)cc1` [Compound 17, p-Anisic acid methyl ester], the MIC in assay [1] (setting [4]), in assay [2] (setting [4]) and in assay [3] (setting [4]) was over 256 µM throughout.

For the compound `O=C1Nc2cc(Br)ccc2[C@@]1(O)c1c[nH]c2ccccc12` [Compound 6, (S) 6-bromo-3-hydroxy-3-(1H-indol-3-yl) indolin-2-one], the MIC in assay [1] (setting [8]) was 128 µM (≈ 43.9 µg/mL); in assay [2] (setting [9]), over 256 µM; in assay [3] (setting [10]), over 256 µM; with MRSA ATCC33591 (24 h) it was over 256 µM.

Take `CC(c1c[nH]c2ccccc12)c1c[nH]c2ccccc12` [Compound 4, Vibrindole]: the minimal inhibitory concentration (MIC) in assay [1] (setting [5]) was 64 µM (≈ 16.7 µg/mL); in assay [2] (setting [6]) it was 128 µM (≈ 33.3 µg/mL); in assay [3] (setting [7]), over 256 µM; with MRSA ATCC33591 (setting [4]) it was 64 µM (≈ 16.7 µg/mL).

`CC(=O)/C=C1/C(=O)Nc2ccc(Br)cc21` [Compound 11, (E)-5-bromo-3-(2-oxopropylidene)indolin-2-one]: the minimum inhibitory concentration (MIC) in assay [1] (setting [4]), in assay [2] (setting [4]) and in assay [3] (setting [4]) was over 256 µM in each case.

For `O=C1Nc2ccc(Br)cc2C1=O` [Compound 9, 5-Bromoisatine], the MIC in assay [1] (setting [5]) is 128 µM (≈ 28.9 µg/mL); in assay [2] (setting [6]), over 256 µM; in assay [3] (setting [7]) it was over 256 µM; in the assay with MRSA ATCC33591 (setting [4]), 128 µM (≈ 28.9 µg/mL).

On to `CC1=CCC2C(CC[C@@]2(C)O)C(C)(C)C1CC[C@@H]1[C@@]2(C)CCC(=O)C(C)(C)O[C@@H]2CC[C@]1(C)O` (stereo partly drawn) [Compound 34, Sipholenone A], for which the minimal inhibitory concentration (MIC) (in assay [1] (setting [5]); in assay [2] (setting [6]); in assay [3] (setting [7]); in the assay on MRSA ATCC33591 (setting [4])) was over 256 µM each time.

For the compound `COc1cc(C(C)=O)cc(OC)c1O` [Compound 23, Acetosyringone], the MIC (in assay [1] (setting [5]); in assay [2] (setting [6]); in assay [3] (setting [7]); in the assay on MRSA ATCC33591 (setting [4])) was over 256 µM throughout.

In the case of `CC(C)CCC[C@@H](C)[C@H]1CC[C@H]2[C@@H]3CC[C@H]4CC(=O)CC[C@]4(C)[C@H]3CC[C@]12C` [Compound 30, 5α-Cholestanone], the minimal inhibitory concentration (MIC) in assay [1] (setting [4]), in assay [2] (setting [4]) and in assay [3] (setting [4]) was over 256 µM in each case.

Consider `O=C1Nc2cc(Br)ccc2C1=O` [Compound 10, 6-Bromoisatine], for which the MIC is 128 µM (≈ 28.9 µg/mL) in assay [1] (setting [5]), 128 µM (≈ 28.9 µg/mL) in assay [2] (setting [6]), over 256 µM in assay [3] (setting [7]) and 128 µM (≈ 28.9 µg/mL) with MRSA ATCC33591 (setting [4]).

On to `CC(=O)C[C@]1(O)C(=O)Nc2cc(Br)ccc21` [Compound 5, Convolutamidine F], for which the minimal inhibitory concentration (MIC) in assay [1] (setting [5]) is 128 µM (≈ 36.4 µg/mL); in assay [2] (setting [6]) it was over 256 µM; in assay [3] (setting [7]), over 256 µM; in the assay on MRSA ATCC33591 (setting [4]) it was 128 µM (≈ 36.4 µg/mL). For the same compound, the Pim-1 kinase inhibition entry in the assay with Pim-1 kinase is on record as “potent cytotoxic Pim-1 kinase inhibitors”.

For `O=C(O)c1ccc2ccccc2c1O` [Compound 26, 1-Hydroxy-2-naphthoic acid], the minimum inhibitory concentration (MIC) (in assay [1] (setting [5]); in assay [2] (setting [6]); in assay [3] (setting [7]); with MRSA ATCC33591 (setting [4])) was over 256 µM each time.

As to `O=C(O)c1cc(O)c2ccccc2c1O` [Compound 27, 1,4 Dihydroxy-2-naphthoic acid], the MIC in assay [1] (setting [4]), in assay [2] (setting [4]) and in assay [3] (setting [4]) was over 256 µM in each case.

As for `CC[C@H](C=C[C@@H](C)[C@H]1CC[C@H]2[C@@H]3CC(=O)C4=CC(=O)CC[C@]4(C)[C@H]3CC[C@]12C)C(C)C` [Compound 32, Stigmasta-4,22-dien-3,6-dione], the minimal inhibitory concentration (MIC) in assay [1] (setting [4]), in assay [2] (setting [4]) and in assay [3] (setting [4]) was over 256 µM throughout.

Consider `Nc1ccccc1C(=O)O` [Compound 19, Anthranilic acid], for which the minimum inhibitory concentration (MIC) (in assay [1] (setting [8]); in assay [2] (setting [9]); in assay [3] (setting [10]); in the assay on MRSA ATCC33591 (24 h)) was over 256 µM throughout.

In the case of `COc1cc(C(=O)O)cc(OC)c1O` [Compound 18, Syringic acid], the minimum inhibitory concentration (MIC) (in assay [1] (setting [5]); in assay [2] (setting [6]); in assay [3] (setting [7]); in the assay on MRSA ATCC33591 (setting [4])) was over 256 µM throughout.

As for `O=C(O)C(=O)Cc1c[nH]c2ccccc12` [Compound 15, Indole-3-pyruvic acid], the MIC (in assay [1] (setting [5]); in assay [2] (setting [6]); in assay [3] (setting [7]); in the assay on MRSA ATCC33591 (setting [4])) was over 256 µM throughout.

Consider `O=C(O)Cc1ccccc1` [Compound 25, Phenyl acetic acid], for which the MIC (in assay [1] (setting [8]); in assay [2] (setting [9]); in assay [3] (setting [10]); with MRSA ATCC33591 (24 h)) was over 256 µM throughout.

On to `O=Cc1ccc(O)cc1` [Compound 20, p-Hydroxy benzaldehyde], for which the MIC in assay [1] (setting [4]), in assay [2] (setting [4]) and in assay [3] (setting [4]) was over 256 µM in each case.

For the compound `O=C1Nc2ccccc2C1=O` [Compound 8, Isatine], the MIC in assay [1] (setting [4]), in assay [2] (setting [4]) and in assay [3] (setting [4]) was over 256 µM in each case.

As to `Cc1c[nH]c2ccccc12` [Compound 12, Skatole], the MIC in assay [1] (setting [4]), in assay [2] (setting [4]) and in assay [3] (setting [4]) was over 256 µM each time.

With `COc1ccc(C(=O)O)cc1` [Compound 16, p-Anisic acid], the minimal inhibitory concentration (MIC) (in assay [1] (setting [5]); in assay [2] (setting [6]); in assay [3] (setting [7]); in the assay with MRSA ATCC33591 (setting [4])) was over 256 µM throughout.

Turning to `COc1ccc(C(=O)OCc2ccccc2)cc1` [Compound 22, Benzyl anisate], the minimum inhibitory concentration (MIC) in assay [1] (setting [4]), in assay [2] (setting [4]) and in assay [3] (setting [4]) was over 256 µM in each case.

With `CC[C@H](/C=C/[C@@H](C)[C@H]1CC[C@H]2[C@@H]3CCC4=CC(=O)CC[C@]4(C)[C@H]3CC[C@]12C)C(C)C` [Compound 31, Stigmasterone], the minimal inhibitory concentration (MIC) in assay [1] (setting [4]), in assay [2] (setting [4]) and in assay [3] (setting [4]) was over 256 µM each time.

Turning to `O=Cc1cc(O)ccc1O` [Compound 21, Gentisaldehyde], the minimum inhibitory concentration (MIC) in assay [1] (setting [4]), in assay [2] (setting [4]) and in assay [3] (setting [4]) was over 256 µM each time.

As for `OCCc1c[nH]c2ccccc12` [Compound 14, Tryptophol], the minimum inhibitory concentration (MIC) (in assay [1] (setting [5]); in assay [2] (setting [6]); in assay [3] (setting [7]); in the assay on MRSA ATCC33591 (setting [4])) was over 256 µM each time.

Turning to `O=Cc1c[nH]c2ccccc12` [Compound 13, Indole-3-carbaldehyde], the minimal inhibitory concentration (MIC) (in assay [1] (setting [5]); in assay [2] (setting [6]); in assay [3] (setting [7]); with MRSA ATCC33591 (setting [4])) was over 256 µM in each case.

As to `CCCCCCCCCCC/C=C\CCCCC(=O)O` [Compound 36, Petroselenic acid], the minimum inhibitory concentration (MIC) in assay [1] (setting [4]), in assay [2] (setting [4]) and in assay [3] (setting [4]) was over 256 µM throughout.
